{"source": "paper PMC12514245", "about": "“Impaired migration and lung invasion of human melanoma by a novel small molecule targeting the transmembrane domain of death receptor p75^NTR” (EMBO Molecular Medicine, 2025)", "key": {"p75^NTR TMD": {"biological_target": "T1, p75^NTR TMD (Homo sapiens, UniProt P08138)", "T1 sequence (P08138 250-275 limits assumed)": "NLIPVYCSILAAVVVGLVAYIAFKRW", "experiment": "AraTM assay, wild-type p75NTR TMD (GFP/OD630)", "format": "cell-based", "settings": "structure-activity comparison"}, "A875 melanoma cells (NT)": {"tested_on": "A875 melanoma cells (NT)", "experiment": "Cleaved PARP western blot (apoptosis), A875 NT", "format": "cell-based, human", "settings": "Q-VD-pOH 5 µM; Div17E5 10 µM", "protocol": "One of the main biological readouts of p75^NTR activity in response to neurotrophins is the induction of caspase-mediated apoptotic cell death (Underwood and Coulson, [2008]; Friedman, [2010]; Ibáñez and Simi, [2012]).\nCOS7, A875 and WM115 cell lines were cultured under standard conditions in DMEM supplemented with 10% fetal calf serum, 100 units/ml penicillin, […] streptomycin, and 2.5 mM glutamine. All cells were authenticated and tested for mycoplasma contamination. A875-NT (control) and A875 shp75 (knockdown) cell lines were described previously (Goh et al, [2018])."}, "A875 NT cells [1]": {"tested_on": "A875 NT cells", "experiment": "Wound healing cell motility assay, A875 NT", "format": "cell-based, human", "settings": "for Wound area, Mean / Wound area, n1-n3: 5μM Q_VD_poH; for Wound area, Mean: N=3", "protocol": "(§1) For wound healing assay, cells were grown until confluency and subjected to a wound across the cell mono-layer. Cells were then incubated with serum-free media either with DMSO or a small molecule (with or without 5 µM Q_VD_poH) and imaged at specific time-points. Cell migration is reflected as fold change in wound area over time."}, "A875 shp75 cells": {"tested_on": "A875 shp75 cells", "experiment": "Wound healing cell motility assay, A875 shp75", "format": "cell-based, human", "settings": "5μM Q_VD_poH; for Wound area, Mean: N=3", "protocol": "as §1"}, "A875 NT cells [2]": {"tested_on": "A875 NT cells", "experiment": "Boyden chamber chemotaxis/invasion assay, A875 NT", "format": "cell-based, human", "settings": "5μM Q_VD_pOH; for Fold change (invading cells), Mean: N=3", "protocol": "For Boyden chamber assay, Corning® BioCoat™ Matrigel® Invasion Chambers 8.0 µm PET Membrane were used (cat. no. 354480). A875 NT or WM115 cells were serum-starved for 16 h and then seeded at 60,000 cells per well in serum-free media under different conditions, including DMSO (vehicle) or small molecules Div17E5 or Np75-4A22 at different concentrations to the top chamber of the Matrigel-coated trans-well chamber. The pan-caspase inhibitor Q_VD_poH (at 5 µM) was also introduced in the top chamber in some experiments. Two different chemoattractants, NGF (at 50 ng/ml or 100 ng/ml as indicated) or 10% FBS were added to the bottom chamber. Assays were carried out for 8 h after which filters were fixed in 4% PFA and stained with DAPI. Cells that had remained on the top of the filter were gently scrapped away with a cotton tip. The filter lower side was imaged on an inverted fluorescence microscope and counted using ImageJ software (NIH)."}}, "note": "Where “and” joins values, the source holds several entries; their conditions need not be identical. Identical values can stand only once. Entries after “also recorded” stand apart in the source; their conditions may differ.", "data": [{"smiles": "Cc1cccc(-c2cncc(Nc3ccc([N+](=O)[O-])cc3)n2)c1", "note": "[Np75-3A20]", "values": [{"measurement": "activity in the AraTM assay", "setting": "p75^NTR TMD", "value": "Np75-3A21 better than -3A19 and -3A20"}]}, {"smiles": "Cc1ccc(-c2cncc(Nc3ccc([N+](=O)[O-])cc3)n2)cc1", "note": "[Np75-3A21]", "values": [{"measurement": "activity in the AraTM assay", "setting": "p75^NTR TMD", "value": "best compounds; also recorded: Np75-3A21 better than -3A19 and -3A20; also recorded: best hit from this series"}]}, {"smiles": "O=C(Nc1ccc([N+](=O)[O-])cc1)c1cncc(-c2ccc3ccccc3c2)n1", "note": "[Np75-3A49]", "values": [{"measurement": "activity in the AraTM assay", "setting": "p75^NTR TMD", "value": "activity was lost"}]}, {"smiles": "O=C(Nc1ccc([N+](=O)[O-])cc1)c1cncc(-c2cccc(OC3CCCC3)c2)n1", "note": "[Np75-3A51]", "values": [{"measurement": "activity in the AraTM assay", "setting": "p75^NTR TMD", "value": "activity was lost"}]}, {"smiles": "COc1ccc(-c2cncc(Nc3ccc(Br)c(Cl)c3)n2)cc1", "note": "[Np75-3B03]", "values": [{"measurement": "activity in the AraTM assay", "setting": "p75^NTR TMD", "value": "best compound in this series; also recorded: less potent than MS_18"}]}, {"smiles": "CC(C)[C@H](NC(=O)c1ccc2ccccc2n1)C(=O)N[C@@H](CC(=O)O)C(=O)COc1c(F)cccc1F", "note": "[Q-VD-pOH, reference compound]", "values": [{"measurement": "block of Div17E5-induced apoptosis (cleaved PARP)", "setting": "A875 melanoma cells (NT)", "value": "could be blocked"}, {"measurement": "rescue of Div17E5 effect on cell motility by caspase inhibitor", "setting": "A875 NT cells [1]", "value": "could not be rescued"}, {"measurement": "Wound area, Mean", "setting": "A875 NT cells [1]; 0 hours", "value": 1.000, "unit": "Fold"}, {"measurement": "Wound area, n1-n3", "setting": "A875 NT cells [1]; 3 hours", "value": "0.912 Fold and 1.045 Fold and 0.955 Fold"}, {"measurement": "Wound area, Mean", "setting": "A875 NT cells [1]; 3 hours", "value": 0.971, "unit": "Fold"}, {"measurement": "Wound area, n1-n3", "setting": "A875 NT cells [1]; 6 hours", "value": "0.873 Fold and 1.010 Fold and 0.935 Fold"}, {"measurement": "Wound area, Mean", "setting": "A875 NT cells [1]; 6 hours", "value": 0.939, "unit": "Fold"}, {"measurement": "Wound area, n1-n3", "setting": "A875 NT cells [1]; 9 hours", "value": "0.814 Fold and 0.952 Fold and 0.859 Fold"}, {"measurement": "Wound area, Mean", "setting": "A875 NT cells [1]; 9 hours", "value": 0.875, "unit": "Fold"}, {"measurement": "Wound area, n1-n3", "setting": "A875 NT cells [1]; 12 hours", "value": "0.792 Fold and 0.920 Fold and 0.820 Fold"}, {"measurement": "Wound area, Mean", "setting": "A875 NT cells [1]; 12 hours", "value": 0.844, "unit": "Fold"}, {"measurement": "Wound area, n1-n3", "setting": "A875 NT cells [1]; 15 hours", "value": "0.758 Fold and 0.880 Fold and 0.797 Fold"}, {"measurement": "Wound area, Mean", "setting": "A875 NT cells [1]; 15 hours", "value": 0.811, "unit": "Fold"}, {"measurement": "Wound area, n1-n3", "setting": "A875 NT cells [1]; 18 hours", "value": "0.732 Fold and 0.836 Fold and 0.772 Fold"}, {"measurement": "Wound area, Mean", "setting": "A875 NT cells [1]; 18 hours", "value": 0.780, "unit": "Fold"}, {"measurement": "Wound area, n1-n3", "setting": "A875 NT cells [1]; 21 hours", "value": "0.724 Fold and 0.832 Fold and 0.756 Fold"}, {"measurement": "Wound area, Mean", "setting": "A875 NT cells [1]; 21 hours", "value": 0.771, "unit": "Fold"}, {"measurement": "Wound area, n1-n3", "setting": "A875 NT cells [1]; 24 hours", "value": "0.707 Fold and 0.800 Fold and 0.730 Fold"}, {"measurement": "Wound area, Mean", "setting": "A875 NT cells [1]; 24 hours", "value": 0.746, "unit": "Fold"}, {"measurement": "Wound area, n1-n3", "setting": "A875 shp75 cells; 0 hours", "value": "0.942 Fold and 1.051 Fold and 1.006 Fold"}, {"measurement": "Wound area, Mean", "setting": "A875 shp75 cells; 0 hours", "value": 1.000, "unit": "Fold"}, {"measurement": "Wound area, n1-n3", "setting": "A875 shp75 cells; 3 hours", "value": "0.980 Fold and 1.009 Fold and 0.979 Fold"}, {"measurement": "Wound area, Mean", "setting": "A875 shp75 cells; 3 hours", "value": 0.989, "unit": "Fold"}, {"measurement": "Wound area, n1-n3", "setting": "A875 shp75 cells; 6 hours", "value": "0.990 Fold and 1.014 Fold and 0.952 Fold"}, {"measurement": "Wound area, Mean", "setting": "A875 shp75 cells; 6 hours", "value": 0.985, "unit": "Fold"}, {"measurement": "Wound area, n1-n3", "setting": "A875 shp75 cells; 9 hours", "value": "0.935 Fold and 0.937 Fold and 0.886 Fold"}, {"measurement": "Wound area, Mean", "setting": "A875 shp75 cells; 9 hours", "value": 0.919, "unit": "Fold"}, {"measurement": "Wound area, n1-n3", "setting": "A875 shp75 cells; 12 hours", "value": "0.939 Fold and 0.913 Fold and 0.875 Fold"}, {"measurement": "Wound area, Mean", "setting": "A875 shp75 cells; 12 hours", "value": 0.909, "unit": "Fold"}, {"measurement": "Wound area, n1-n3", "setting": "A875 shp75 cells; 15 hours", "value": "0.891 Fold and 0.870 Fold and 0.844 Fold"}, {"measurement": "Wound area, Mean", "setting": "A875 shp75 cells; 15 hours", "value": 0.869, "unit": "Fold"}, {"measurement": "Wound area, n1-n3", "setting": "A875 shp75 cells; 18 hours", "value": "0.856 Fold and 0.835 Fold and 0.800 Fold"}, {"measurement": "Wound area, Mean", "setting": "A875 shp75 cells; 18 hours", "value": 0.830, "unit": "Fold"}, {"measurement": "Wound area, n1-n3", "setting": "A875 shp75 cells; 21 hours", "value": "0.849 Fold and 0.778 Fold and 0.767 Fold"}, {"measurement": "Wound area, Mean", "setting": "A875 shp75 cells; 21 hours", "value": 0.798, "unit": "Fold"}, {"measurement": "Wound area, n1-n3", "setting": "A875 shp75 cells; 24 hours", "value": "0.815 Fold and 0.772 Fold and 0.761 Fold"}, {"measurement": "Wound area, Mean", "setting": "A875 shp75 cells; 24 hours", "value": 0.783, "unit": "Fold"}, {"measurement": "Fold change (invading cells), n1-n3", "setting": "A875 NT cells [2]; With NGF", "value": "2.27 Fold and 1.89 Fold and 2.17 Fold"}, {"measurement": "Fold change (invading cells), Mean", "setting": "A875 NT cells [2]; With NGF", "value": 2.11, "unit": "Fold"}, {"measurement": "Fold change (invading cells), n1-n3", "setting": "A875 NT cells [2]; without NGF", "value": "1.22 Fold and 1.02 Fold and 1.42 Fold"}, {"measurement": "Fold change (invading cells), Mean", "setting": "A875 NT cells [2]; without NGF", "value": 1.22, "unit": "Fold"}]}]}
